Calls of active or inactive are those of the source. How the calls were made is not given here.
System: rodent lifetime carcinogenesis bioassay, tumor incidence TD50
Assay: carcinogenic potency in animals, long-term in vivo studies, CPDB compilation (AID 1745844)
[1] = rat, strain Sprague-Dawley, females, in feed, site: any site (literature study), lesion: several types, types named in the paper, dosed 46 weeks, study length 66 weeks
[2] = rat, strain Sprague-Dawley, females, in feed, site: mammary gland, lesion: adenocarcinoma, dosed 46 weeks, study length 66 weeks

CCBr
TD50 (mouse, strain B6C3F1, females, inhaled, site: any site (literature study), lesion: several types, types named in the paper, dosed 103 weeks, study length 105 weeks): 571 mg/kg/day | TD50 (mouse, strain B6C3F1, females, inhaled, site: lung, lesion: alveolar/bronchiolar adenoma + alveolar/bronchiolar carcinoma, dosed 103 weeks, study length 105 weeks): 5810 mg/kg/day | TD50 (mouse, strain B6C3F1, females, inhaled, site: uterus, lesion: adenocarcinoma, NOS + adenoma, NOS + squamous-cell carcinoma, dosed 103 weeks, study length 105 weeks): 535 mg/kg/day | TD50 (mouse, strain B6C3F1, females, inhaled, site: uterus, lesion: adenocarcinoma, NOS + adenoma, NOS, dosed 103 weeks, study length 105 weeks): 596 mg/kg/day | TD50 (mouse, strain B6C3F1, females, inhaled, site: uterus, lesion: adenocarcinoma, NOS + squamous-cell carcinoma, dosed 103 weeks, study length 105 weeks): 681 mg/kg/day | TD50 (mouse, strain B6C3F1, females, inhaled, site: uterus, lesion: adenocarcinoma, NOS, dosed 103 weeks, study length 105 weeks): 822 mg/kg/day | TD50 (mouse, strain B6C3F1, females, inhaled, site: uterus, lesion: adenoma, NOS, dosed 103 weeks, study length 105 weeks): 2610 mg/kg/day | TD50 (mouse, strain B6C3F1, females, inhaled, site: uterus, lesion: squamous-cell carcinoma, dosed 103 weeks, study length 105 weeks): 4440 mg/kg/day | TD50 (mouse, strain B6C3F1, males, inhaled, site: any site (literature study), lesion: several types, types named in the paper, dosed 104 weeks, study length 105 weeks): 1630 mg/kg/day | TD50 (mouse, strain B6C3F1, males, inhaled, site: liver, lesion: hepatocellular adenoma + hepatocellular carcinoma + neoplastic nodule, dosed 104 weeks, study length 105 weeks): 3670 mg/kg/day | TD50 (mouse, strain B6C3F1, males, inhaled, site: lung, lesion: alveolar/bronchiolar adenoma + alveolar/bronchiolar carcinoma, dosed 104 weeks, study length 105 weeks): 1100 mg/kg/day | TD50 (mouse, strain B6C3F1, males, inhaled, site: lung, lesion: alveolar/bronchiolar carcinoma, dosed 104 weeks, study length 105 weeks): 2390 mg/kg/day | TD50 (rat, strain Fischer 344, females, inhaled, site: brain, lesion: glioma, NOS, dosed 104 weeks, study length 106 weeks): 1020 mg/kg/day | TD50 (rat, strain Fischer 344, females, inhaled, site: liver, lesion: hepatocellular adenoma + hepatocellular carcinoma + neoplastic nodule, dosed 104 weeks, study length 106 weeks): 670 mg/kg/day | TD50 (rat, strain Fischer 344, females, inhaled, site: lung, lesion: alveolar/bronchiolar adenoma, dosed 104 weeks, study length 106 weeks): 1280 mg/kg/day | TD50 (rat, strain Fischer 344, males, inhaled, site: adrenal medulla + brain + lung, lesion: pheochromocytoma + pheochromocytoma, malignant + astrocytoma + granulosa-cell tumor, NOS + glioma, NOS + oligodendroglioma + alveola, dosed 104 weeks, study length 106 weeks): 151 mg/kg/day | TD50 (rat, strain Fischer 344, males, inhaled, site: adrenal medulla, lesion: pheochromocytoma + pheochromocytoma, malignant, dosed 104 weeks, study length 106 weeks): 149 mg/kg/day | carcinogen call (rat, strain Fischer 344, males, inhaled, site: brain, lesion: astrocytoma + glioma, NOS + oligodendroglioma, dosed 104 weeks, study length 106 weeks): p | TD50 (rat, strain Fischer 344, males, inhaled, site: brain, lesion: granulosa-cell tumor, NOS, dosed 104 weeks, study length 106 weeks): 80700 mg/kg/day | TD50 (rat, strain Fischer 344, males, inhaled, site: liver, lesion: hepatocellular adenoma + hepatocellular carcinoma + neoplastic nodule, dosed 104 weeks, study length 106 weeks): 2280 mg/kg/day | TD50 (rat, strain Fischer 344, males, inhaled, site: liver, lesion: neoplastic nodule, dosed 104 weeks, study length 106 weeks): 1140 mg/kg/day | TD50 (rat, strain Fischer 344, males, inhaled, site: lung, lesion: alveolar/bronchiolar adenoma + alveolar/bronchiolar carcinoma, dosed 104 weeks, study length 106 weeks): 582 mg/kg/day

O=C1c2cccc(O)c2C(=O)c2c(O)cccc21
TD50 (mouse, strain C3H/HeN, males, in feed, site: liver, lesion: hepatocellular adenoma, dosed 77 weeks, study length 77 weeks): 201 mg/kg/day | TD50 (mouse, strain C3H/HeN, males, in feed, site: liver, lesion: hepatocellular carcinoma, dosed 77 weeks, study length 77 weeks): 336 mg/kg/day | TD50 (mouse, strain C3H/HeN, males, in feed, site: liver, lesion: several types, types named in the paper, dosed 77 weeks, study length 77 weeks): 201 mg/kg/day | TD50 (rat, strain ACI, males, in feed, site: large intestine, lesion: several types, types named in the paper, dosed 69 weeks, study length 69 weeks): 245 mg/kg/day

CN(N=O)C(=O)N[C@@H](C=O)[C@@H](O)[C@H](O)[C@H](O)CO
TD50 (mouse, strain Swiss, females, i.p., site: any site (literature study), lesion: benign tumor, dosed 26 weeks, study length 78 weeks): 0.188 mg/kg/day | TD50 (mouse, strain Swiss, females, i.p., site: any site (literature study), lesion: malignant tumor, dosed 26 weeks, study length 78 weeks): 6.32 mg/kg/day | TD50 (mouse, strain Swiss, females, i.p., site: any site (literature study), lesion: several types, types named in the paper, dosed 26 weeks, study length 78 weeks): 0.486 mg/kg/day | TD50 (mouse, strain Swiss, females, i.p., site: kidney, lesion: adenoma, dosed 26 weeks, study length 78 weeks): 1.39 mg/kg/day | TD50 (mouse, strain Swiss, females, i.p., site: lung, lesion: several types, types named in the paper, dosed 26 weeks, study length 78 weeks): 0.193 mg/kg/day | TD50 (mouse, strain Swiss, females, i.p., site: uterus, lesion: sarcoma, dosed 26 weeks, study length 78 weeks): 13.9 mg/kg/day | TD50 (mouse, strain Swiss, males, i.p., site: any site (literature study), lesion: benign tumor, dosed 26 weeks, study length 72 weeks): 0.698 mg/kg/day | TD50 (mouse, strain Swiss, males, i.p., site: any site (literature study), lesion: malignant tumor, dosed 26 weeks, study length 72 weeks): 3.53 mg/kg/day | TD50 (mouse, strain Swiss, males, i.p., site: any site (literature study), lesion: several types, types named in the paper, dosed 26 weeks, study length 72 weeks): 0.217 mg/kg/day | TD50 (mouse, strain Swiss, males, i.p., site: kidney, lesion: tubular-cell adenoma, dosed 26 weeks, study length 72 weeks): 2.44 mg/kg/day | TD50 (mouse, strain Swiss, males, i.p., site: liver, lesion: several types, types named in the paper, dosed 26 weeks, study length 72 weeks): 27.3 mg/kg/day | TD50 (mouse, strain Swiss, males, i.p., site: lung, lesion: several types, types named in the paper, dosed 26 weeks, study length 72 weeks): 0.462 mg/kg/day | TD50 (rat, strain Charles River CD (Sprague-Dawley), females, i.p., site: any site (literature study), lesion: malignant tumor, dosed 26 weeks, study length 78 weeks): 0.363 mg/kg/day | TD50 (rat, strain Charles River CD (Sprague-Dawley), females, i.p., site: any site (literature study), lesion: several types, types named in the paper, dosed 26 weeks, study length 78 weeks): 1.14 mg/kg/day | TD50 (rat, strain Charles River CD (Sprague-Dawley), females, i.p., site: kidney, lesion: several types, types named in the paper, dosed 26 weeks, study length 78 weeks): 1.27 mg/kg/day | TD50 (rat, strain Charles River CD (Sprague-Dawley), females, i.p., site: liver, lesion: cavernous hemangioma, dosed 26 weeks, study length 78 weeks): 5.63 mg/kg/day | TD50 (rat, strain Charles River CD (Sprague-Dawley), females, i.p., site: liver, lesion: several types, types named in the paper, dosed 26 weeks, study length 78 weeks): 4.43 mg/kg/day | TD50 (rat, strain Charles River CD (Sprague-Dawley), females, i.p., site: mammary gland, lesion: carcinoma, dosed 26 weeks, study length 78 weeks): 1.41 mg/kg/day | TD50 (rat, strain Charles River CD (Sprague-Dawley), females, i.p., site: uterus, lesion: sarcoma, dosed 26 weeks, study length 78 weeks): 2.46 mg/kg/day | TD50 (rat, strain Charles River CD (Sprague-Dawley), males, i.p., site: any site (literature study), lesion: benign tumor, dosed 26 weeks, study length 78 weeks): 16.8 mg/kg/day | TD50 (rat, strain Charles River CD (Sprague-Dawley), males, i.p., site: any site (literature study), lesion: malignant tumor, dosed 26 weeks, study length 78 weeks): 1.03 mg/kg/day | TD50 (rat, strain Charles River CD (Sprague-Dawley), males, i.p., site: any site (literature study), lesion: several types, types named in the paper, dosed 26 weeks, study length 78 weeks): 0.751 mg/kg/day | TD50 (rat, strain Charles River CD (Sprague-Dawley), males, i.p., site: kidney, lesion: several types, types named in the paper, dosed 26 weeks, study length 78 weeks): 0.776 mg/kg/day | TD50 (rat, strain Charles River CD (Sprague-Dawley), males, i.p., site: liver, lesion: liver-cell carcinoma, dosed 26 weeks, study length 78 weeks): 20.4 mg/kg/day

CCCCCCc1ccc(O)cc1O
carcinogen call (mouse, strain B6C3F1, females, by gavage, site: any site (literature study), lesion: several types, types named in the paper, dosed 102 weeks, study length 104 weeks): negative (inactive) | TD50 (mouse, strain B6C3F1, males, by gavage, site: Harderian gland, lesion: adenoma, NOS + carcinoma, NOS, dosed 102 weeks, study length 104 weeks): 368 mg/kg/day | TD50 (mouse, strain B6C3F1, males, by gavage, site: adrenal medulla, lesion: pheochromocytoma, dosed 102 weeks, study length 104 weeks): 519 mg/kg/day | carcinogen call (rat, strain Fischer 344, females, by gavage, site: any site (literature study), lesion: several types, types named in the paper, dosed 103 weeks, study length 104 weeks): negative (inactive) | TD50 (rat, strain Fischer 344, females, by gavage, site: liver, lesion: hepatocellular adenoma + hepatocellular carcinoma + neoplastic nodule, dosed 103 weeks, study length 104 weeks): 128000 mg/kg/day | TD50 (rat, strain Fischer 344, males, by gavage, site: any site (literature study), lesion: several types, types named in the paper, dosed 103 weeks, study length 104 weeks): 615 mg/kg/day (inactive) | TD50 (rat, strain Fischer 344, males, by gavage, site: liver, lesion: hepatocellular adenoma + hepatocellular carcinoma + neoplastic nodule, dosed 103 weeks, study length 104 weeks): 1530 mg/kg/day

CC(=O)NCc1nc(-c2ccc([N+](=O)[O-])o2)no1
TD50 [1]: 5.2 mg/kg/day | TD50 (rat, strain Sprague-Dawley, females, in feed, site: kidney/pelvis, lesion: transitional-cell carcinoma, dosed 46 weeks, study length 66 weeks): 59.6 mg/kg/day | TD50 (rat, strain Sprague-Dawley, females, in feed, site: lung, lesion: alveolar-cell carcinoma, dosed 46 weeks, study length 66 weeks): 59.6 mg/kg/day | TD50 [2]: 10.3 mg/kg/day | TD50 (rat, strain Sprague-Dawley, females, in feed, site: mammary gland, lesion: several types, types named in the paper, dosed 46 weeks, study length 66 weeks): 6.35 mg/kg/day

O=C1N(CCO)CCN1N=Cc1ccc([N+](=O)[O-])o1
TD50 [1]: 18 mg/kg/day | TD50 [2]: 16.7 mg/kg/day
